Patent US12065426B2, “Crystalline form of nilotinib hydrochloride, process for its preparation and pharmaceutical composition containing the same” (Laurus Labs Limited, priority 2018, dated 2024)
Like-named read-outs stand apart in the source and are kept apart here.

Key:
[1] = Saturation solubility studies in various mediums; details: for solubility: 25 °C, thermodynamic from solid
Procedure: Saturation solubility studies were conducted in various mediums for nilotinib hydrochloride Form L of the present invention and nilotinib hydrochloride monohydrate Form B (U.S. Pat. No. 8,415,363).

[2] = from table 22 of U.S. Pat. No. 8,415,363, cited from earlier work
[3] = Thermogravimetric analysis (TGA) / loss on drying; type: physicochemical; details: for Thermogravimetric (weight loss %): 10° C./minute, RT to 80° C.
Procedure: Thermogravimetry analysis (TGA) data in the present invention was acquired using TA instruments TGA Q500 thermogravimetric analyser with universal Analysis 2000 software using the following conditions; Heating rate: 10° C./min; Temperature range: 28±2° C.-250° C.; Nitrogen flow: 60 mL/minute.

[4] = Variable temperature powder X-ray diffraction (VT-PXRD); type: physicochemical; details: 25-300° C., heating rate 10° C./mins
[5] = Dynamic vapour sorption (DVS); type: physicochemical
Procedure: Dynamic vapour sorption (DVS) data in the present invention was acquired using TA instruments TA Q5000SA Dynamic vapour sorption analyser with Universal Analysis 2000 software under following parameters; Sample was initially equilibrated at 0% RT for 120 mins; humidity range: 10 to 90%; humidity step size: 10%; Equilibration condition: change in mass less than 0.01% within 5 mins.

[6] = Chemical and polymorphic stability study at different storage conditions (HPLC, XRD); type: physicochemical; set-up: key to 5-Methyl isomer (Imp-4) / 4-Ethyl analogue (Imp-5) / Any unspecified impurity / Total Impurities / Methyl ester impurity (Imp-2) / Acid impurity (Imp-1): ND: Not detected; BDRL: Below disregard limit
Text: Nilotinib hydrochloride Form L is packed in a transparent Low density polyethylene (LDPE) bag with a strip seal along with nitrogen filling, which is again kept in a second transparent low density polyethylene bag with strip seal. The LDPE bag is kept in to a triple laminated sunlight barrier with heat seal followed by in a high density polyethylene container and well closed.
Alternatively, Nilotinib hydrochloride Form L is packed in a HM LDPE bag in nitrogen atmosphere, fill the bag with nitrogen and seal it with vacuum sealer. Place this bag in another HM LDPE bag, fill with nitrogen, keep one silica gel packet between two bags and seal the bag with vacuum sealer. Place this in a triple laminated sunlight barrier bag, seal the bag with vacuum sealer; and finally kept it in a HDPE container.
The Nilotinib hydrochloride Form L was analysed using High Performance Liquid Chromatography (“HPLC”) with the conditions as tabulated below: […]

In the case of `Cc1cn(-c2cc(NC(=O)c3ccc(C)c(Nc4nccc(-c5cccnc5)n4)c3)cc(C(F)(F)F)c2)cn1.Cl.O` [Form B, reference compound], the Saturation solubility ([1]; 0.01N HCl, approximately at 25° C.) is reported as 0.08 mg/mL, the Saturation solubility ([1]; 0.1N HCl, approximately at 25° C.) is reported as 0.94 mg/mL and the Saturation solubility ([1]; Ethanol, approximately at 25° C.) is reported as 3.69 mg/mL. The Saturation solubility ([1]; Isopropanol, approximately at 25° C.) was 1.93 mg/mL, the Saturation solubility ([1]; Phosphate buffer, pH 6.8, approximately at 25° C.) was “Below detection” and the Saturation solubility ([1]; Water, approximately at 25° C.) was 0.17 mg/mL. For the same compound, the Loss on drying ([2]; 30° C.-100° C.) was 1.00%, the Loss on drying ([2]; 100° C.-220° C.) was 3.02% and the “Thermogravimetric (weight loss %)” value [3] was 0.91 (RT to 80° C.) %.
`Cc1cn(-c2cc(NC(=O)c3ccc(C)c(Nc4nccc(-c5cccnc5)n4)c3)cc(C(F)(F)F)c2)cn1.Cl` [Form L, 4-methyl-N-[3-(4-methyl-1H-imidazol-1-yl)-5-(trifluoromethyl)phenyl]-3-[[4-(3-pyridinyl)-2-pyrimidinyl]amino]-benzamide hydrochloride] showed a solubility ([1]; 0.01N HCl, simulated gastric fluid) of 170 µg/mL, a solubility ([1]; 0.1N HCl, simulated gastric fluid) of 1860 µg/mL and a solubility ([1]; ethanol, organic solvent or mixture) of 16300 µg/mL. The solubility ([1]; isopropanol, organic solvent or mixture) was 2740 µg/mL, the solubility ([1]; phosphate buffer, pH 6.8, aqueous buffer) was 20 µg/mL and the “Solubility compared to Form B” value ([1]; various mediums) was “better solubility”. The solubility ([1]; water) was 160 µg/mL, the “Temperature up to which characteristic PXRD is retained” value [4] was “about 140 °C” and the “% Weight change” value ([5]; Adsorption, 10 % RH) was 0.5405%. The “% Weight change” value ([5]; Adsorption, 20 % RH) was 0.7918%, the “% Weight change” value ([5]; Adsorption, 30 % RH) was 0.9954% and the “% Weight change” value ([5]; Adsorption, 40 % RH) was 1.170%. For the same compound, the “% Weight change” value ([5]; Adsorption, 50 % RH) was 1.350%, the “% Weight change” value ([5]; Adsorption, 60 % RH) was 1.544% and the “% Weight change” value ([5]; Adsorption, 70 % RH) was 1.904%. The “% Weight change” value ([5]; Adsorption, 80 % RH) was 2.661%, the “% Weight change” value ([5]; Adsorption, 90 % RH) was 5.414% and the “% Weight change” value ([5]; Desorption, 10 % RH) was 1.303%. The “% Weight change” value ([5]; Desorption, 20 % RH) was 1.751%, the “% Weight change” value ([5]; Desorption, 30 % RH) was 2.098% and the “% Weight change” value ([5]; Desorption, 40 % RH) was 2.855%. The “% Weight change” value ([5]; Desorption, 50 % RH) was 4.190%, the “% Weight change” value ([5]; Desorption, 60 % RH) was 4.453% and the “% Weight change” value ([5]; Desorption, 70 % RH) was 4.875%. The “% Weight change” value ([5]; Desorption, 80 % RH) was 5.134%, the “% Weight change” value ([5]; Desorption, 90 % RH) was 5.414% and the Water pick up ([5]; at 80% RH at RT) was “about 2.7%”. The “Maximum absorption of water” value ([5]; at 90% RH) was “about 5.4%”, the “Difference in water content between absorption and desorption” value ([5]; between 50% and 60% RH at room temperature) was “about 3%” and the Hygroscopicity ([5]; from water pick up at 80% RH at RT) was “moderately hygroscopic”. For the same compound, the “4-Ethyl analogue (Imp-5)” value ([6]; 25 ± 2° C./60 ± 5% RH, 2 month) was “BDRL”, the “5-Methyl isomer (Imp-4)” value ([6]; 25 ± 2° C./60 ± 5% RH, 2 month) was “BDRL” and the Any unspecified impurity ([6]; 25 ± 2° C./60 ± 5% RH, 2 month) was “BDRL”. The Description ([6]; 25 ± 2° C./60 ± 5% RH, 2 month) was “Slightly yellow”, the “Solid form by XRD” value ([6]; 25 ± 2° C./60 ± 5% RH, 2 month) was “Complies” and the “Total Impurities” value ([6]; 25 ± 2° C./60 ± 5% RH, 2 month) was “BDRL”. For the same compound, the “4-Ethyl analogue (Imp-5)” value ([6]; 25 ± 2° C./60 ± 5% RH, Initial) was “BDRL”, the Any unspecified impurity ([6]; 25 ± 2° C./60 ± 5% RH, Initial) was “BDRL” and the Description ([6]; 25 ± 2° C./60 ± 5% RH, Initial) was “Slightly yellow”. The “Solid form by XRD” value ([6]; 25 ± 2° C./60 ± 5% RH, Initial) was “Complies”, the “Total Impurities” value ([6]; 25 ± 2° C./60 ± 5% RH, Initial) was “BDRL” and the “4-Ethyl analogue (Imp-5)” value ([6]; 40 ± 2° C./75 ± 5% RH, 1 month) was “BDRL”. For the same compound, the “5-Methyl isomer (Imp-4)” value ([6]; 40 ± 2° C./75 ± 5% RH, 1 month) was “BDRL”, the “Acid impurity (Imp-1)” value ([6]; 40 ± 2° C./75 ± 5% RH, 1 month) was “BDRL” and the Any unspecified impurity ([6]; 40 ± 2° C./75 ± 5% RH, 1 month) was “BDRL”. For the same compound, the Description ([6]; 40 ± 2° C./75 ± 5% RH, 1 month) was “Slightly yellow”, the “Methyl ester impurity (Imp-2)” value ([6]; 40 ± 2° C./75 ± 5% RH, 1 month) was “BDRL” and the “Solid form by XRD” value ([6]; 40 ± 2° C./75 ± 5% RH, 1 month) was “Complies”. For the same compound, the “Total Impurities” value ([6]; 40 ± 2° C./75 ± 5% RH, 1 month) was “BDRL”, the “4-Ethyl analogue (Imp-5)” value ([6]; 40 ± 2° C./75 ± 5% RH, 2 month) was “BDRL” and the “5-Methyl isomer (Imp-4)” value ([6]; 40 ± 2° C./75 ± 5% RH, 2 month) was “BDRL”. The Any unspecified impurity ([6]; 40 ± 2° C./75 ± 5% RH, 2 month) was “BDRL”, the Description ([6]; 40 ± 2° C./75 ± 5% RH, 2 month) was “Slightly yellow” and the “Solid form by XRD” value ([6]; 40 ± 2° C./75 ± 5% RH, 2 month) was “Complies”. The “Total Impurities” value ([6]; 40 ± 2° C./75 ± 5% RH, 2 month) was “BDRL”, the “4-Ethyl analogue (Imp-5)” value ([6]; 40 ± 2° C./75 ± 5% RH, Initial) was “BDRL” and the Any unspecified impurity ([6]; 40 ± 2° C./75 ± 5% RH, Initial) was “BDRL”. The Description ([6]; 40 ± 2° C./75 ± 5% RH, Initial) was “Slightly yellow”, the “Solid form by XRD” value ([6]; 40 ± 2° C./75 ± 5% RH, Initial) was “Complies” and the “Total Impurities” value ([6]; 40 ± 2° C./75 ± 5% RH, Initial) was “BDRL”. For the same compound, the “Polymorphic and chemical identity on storage” value ([6]; different storage conditions, at least up to two months) was “retained the same polymorphic and chemical identity”, the “Thermogravimetric (weight loss %)” value [3] was 1.6 (RT to 80°) % and the Loss on drying ([3]; 30° C.-100° C.) was 2.3%. For the same compound, the Loss on drying ([3]; 100° C.-220° C.) was 7.3%.
